US20110251085A1, “IN VITRO METHOD TO DETERMINE WHETHER A DRUG CANDIDATE ACTIVE AGAINST A TARGET PROTEIN IS ACTIVE AGAINST A VARIANT OF SAID PROTEIN” (VIVALIS, priority 2008, published 2011)
“And” between values parts separate entries of the source, which are not always exact repeats. Equal values may be shown once.

Key:
[1] = target: T1, native NS5BΔ21 (Hepatitis C virus genotype 1b, UniProt P26662); experiment: 3D-Screen-NS5B platform, luciferase reporter, Hela cells, native NS5BΔ21; format: cell-based, HCV genotype 1b; conditions: for inhibition of the luciferase signal (in words): native NS5B platform, Hela cells; for IC50: native NS5BΔ21, 3D-sensor N21C272, 24 hours, read-out: IC50 (luciferase inhibition)
T1 construct: expressed in transfected cells; host or cells: Hela cells, plasmid pVVS478
Method: (§1) Transfections were performed for 2 hours in 100 mm dishes in 2 to 4 million cells with 5 to 20 ug of total DNA complexed to jetPEI (PolyPLus transfection, Illkirch, France) with a N/P ratio of 8 The optimal ratio between the plasmids encoding for the luciferase reporter, the target and the selected 3Dsensor was: 3 ug/1 ug/0.5 ug. Cells were dissociated and 25000 cells per well were seeded in 96 well culture treated plates (BD Biosciences, Erembodegem, Belgium).
Compound library's plates were thawed at room temperature. Drugs were handled by a Genesis workstation (Tecan, Lyon, France) and added to the cells at a 5 uM (in 0.5% DMSO) final concentration. Screening was performed by runs of twenty plates. Hits were identified by measurement of the luciferase activity.
(§2) Cell culture supernatant was discarded and 100 ul of Lysis buffer were added to each well. Following […] of vigorous shaking, the lysate was transferred to white opaque 96 well-plates and 100 ul of Luciferin buffer were added. Chemi-luminescence measurement was performed immediately using a Microlumat LB96 luminometer (Berthold, Thoiry, France) with 1 or 10 sec integration time.
Selected hits were synthesized and tested at concentrations varying between 0.01 uM and 100 uM final concentration so as to determine their IC50 on 3 independent experiments.
3D-sensors confirmed in yeast were further investigated in human cells. Among the reasons of choosing Hela cells figured their wide use, easiness of manipulation and capacity of replicating subgenomic HCV replicons (Zhu et al., 2003; Kato et al., 2005).
To validate whether drug's action on our system was stokiometric or not, Hela cells were transiently transfected with three expression plasmids encoding the reporter gene luciferase, the target protein and the conformation sensitive peptide N21C272. After incubation with increasing amounts of reference drugs cVVS-023476 or cVVS-023477, luciferase expression was measured.

[2] = system: NS5B from genotype 1a or 1b; experiment: Genotype profiling with the 3D-Screen platform, 3D-sensor N21I4; format: cell-based, HCV genotypes 1a and 1b; conditions: Huh-7 cells, genotype 1a versus 1b, increasing amounts
Text: Percentages of luciferase inhibition in the presence of the Indol Acetamid NS5B specific ligand cVVS-023476 were represented for N21 I4 peptide targeting NS5B from genotype 1a and 1b.
HCV variants are classified into six genotypes (from 1 to 6) associated with a lower case letter to indicate the subtype (Le Guillou-Guillemette et al., 2007). Since sensitivity to drugs could vary from one HCV genotype to the other (Manns et al., 2007), the investors tested whether the 3D-Screen platform could be able to discriminate such differences which is highly important for preclinical profiling of drug candidates. The inventors thus verified that the 3D-Sensor N21I4 did interact with the polymerase NS5B from genotypes 1a and 1b in Hela and Huh7 cells in an equivalent way.
Huh-7 cells were transiently transfected with three expression plasmids encoding the reporter gene luciferase, the target NS5B from genotype 1a or 1b and the conformation sensitive peptide N21I4. After incubation with increasing amounts of cVVS-023476, luciferase expression was measured.

[3] = target: native NS4A-NS3 full length protein (Hepatitis C virus genotype 1b, UniProt P26662); experiment: 3D-Screen NS4A-NS3 full length platform, luciferase reporter, Hela cells, native; format: cell-based, HCV genotype 1b; design: the GSGS linker and the NS3 protease (residues 3-631); expressed in transfected cells; conditions: native NS4A-NS3 full length platform, Hela cells
Method: (§5) Cell culture supernatant was discarded and 100 ul of Lysis buffer were added to each well. Following 10 nm of vigorous shaking, the lysate was transferred to white opaque 96 well-plates and 100 ul of Luciferin buffer were added. Chemi-luminescence measurement was performed immediately using a Microlumat LB96 luminometer (Berthold, Thoiry, France) with 1 or 10 sec integration time.

[4] = system: NS5BΔ21 Indol sensitive mutants; format: cell-based, HCV genotype 1b
Method: (§3) Percentages of reporter's inhibition were represented for cells incubated with a specific NS5B inhibitors at increasing concentrations for 24 hours.
as §1, §2
(§4) After incubation for 24 hours with increasing concentrations of cVVS023477 (a compound belonging to the Benzothiadiazin family) or cVVS-023476 (a compound belonging to the Indol N Acetamid family), luciferase expression was measured.

[5] = target: T2, native NS4A-NS3 protease (Hepatitis C virus genotype 1b, UniProt P26662, I1158V/V1140I); experiment: 3D-Screen NS4A-NS3 protease platform, luciferase reporter, Hela cells, native; format: cell-based, HCV genotype 1b; conditions: native NS4A-NS3 protease platform, Hela cells
T2 construct: the NS3 protease (residues 3-181); expressed in transfected cells; host or cells: Hela cells
Method: as §5
3D-sensors confirmed in yeast were further investigated in Hela cells.

[6] = system: Hela cells; experiment: Cytotoxicity assay (XTT) on transfected cells; format: cell-based, human; conditions: 100 μM
Method: Viability measurements were performed on cells transfected and seeded in 96 well plates as described above and incubated with drugs for 24 hours. 0.15 mg/ml of XTT solution (Roche Diagnostics, Meylan, France) were added to each well and the plates incubated for 1 hour at 37° C. The optical density of each well's cell culture supernatant was analysed using a spectrophotometer (at 450 nm with deduction of background signal at 690 nm).

[7] = target: T3, NS5BΔ21 S368A mutant (Hepatitis C virus genotype 1b, UniProt P26662, A2754S/A2757V/K2950R/L2476M/R2673K/S2787A/V2681I); experiment: 3D-Screen-NS5B mutant profiling, Hela cells, S368A; format: cell-based, HCV genotype 1b; conditions: increasing concentrations, 24 hours
T3 construct: expressed in transfected cells; host or cells: Hela cells, plasmid pVVS799
Method: as §3, §1, §2, §4

[8] = system: ER; experiment: Yeast two-hybrid spot test, control clone ER + 3D-sensor No 30-2; format: cell-based
Text: (a) Isolation of peptides interacting with the NS5BΔ21 in the yeast two-hybrid-system. Yeast cells carrying the bait (NS5BΔ21-LexA) were transformed with the prey represented by a library of random peptides (in frame with the viral VP16 activation domain). Colonies growing on selective medium and staining blue allowed the isolation of individual peptides that would specifically interact with the polymerase. (b) Isolation of conformation sensitive peptides. The interacting peptides were then tested in presence of ligands known to induce conformational changes in the bait NS5B. The “3D-sensors” were thus identified as the ones whose binding to the target polymerase was prevented by known anti-NS5B. The corresponding colonies didn't show any expression of the selection or reporter gene. (c) Characterization of NS5BΔ21 “3D-sensors” in a spot test. Here were represented 2 selected yeast colonies: one carrying the ER and its specific peptide called No 30-2 isolated previously and used as a control, the other carrying the NS5BΔ21 and its specific peptide called N21C272. Both clones were spotted on selective medium lacking histidine, leucine and tryptophane, supplemented or not with polymerase ligands and overlayed with an X-Gal staining The NS5BΔ21+N21C272 clone grew on selective medium in the absence of any NS5B ligand and stained positive for LacZ. […]

[9] = target: T4, NS5BΔ21 C316Y mutant (Hepatitis C virus genotype 1b, UniProt P26662, N2735Y); experiment: 3D-Screen-NS5B mutant profiling, Hela cells, C316Y; format: cell-based, HCV genotype 1b; conditions: increasing concentrations, 24 hours
T4 construct: truncated HCV polymerase lacking the C-terminal 21 amino-acids; expressed in transfected cells; host or cells: Hela cells
Method: as §3, §1, §2, §4

[10] = target: T5, NS5BΔ21 (Hepatitis C virus genotype 1b, UniProt P26662); format: cell-based, HCV genotype 1b; conditions: selective medium lacking histidine, leucine and tryptophane, supplemented with ligand, X-Gal overlay
T5 construct: lexA/truncated HCV polymerase lacking the C-terminal 21 amino-acids fusion protein as a bait; expressed in transfected cells; host or cells: Saccharomyces cerevisiae L40, plasmid pVVS468
Method: Yeast cells carrying the bait (NS5BΔ21-LexA) were transformed with the prey represented by a library of random peptides (in frame with the viral VP16 activation domain). […] The interacting peptides were then tested in presence of ligands known to induce conformational changes in the bait NS5B.
The naïve yeast was transformed with the pVVS468 (NS5BΔ21 fused to LexA) according to the Lithium Acetate transformation protocol (Schiestl et al, 1989). […] Resulting double transformants were spread on SD Agar medium lacking Tryptophan and Leucine, and incubated for 48 hours at 30° C. Colonies were then scraped and mixed. 1/500th of the suspension obtained was plated on SD Agar medium lacking Tryptophan, Leucine and Histidine to identify HIS3 reporter's activation. After 3 to 5 days of growth, an X-Gal overlay was performed to identify LacZ activation. An X-Gal solution was mixed with an equal volume of 1% agarose cooled to 50° C. then poured slowly over yeast colonies on the surface of agar plates. The individual clones that stained blue were picked up to be grown overnight in deep wells in order to be further analyzed.
Yeast colonies containing a peptide interacting with the bait were grown overnight in 96-well deepwells in trp-leu-liquid medium. They were then spotted using a plugger either on trp-leu-his-or trp-leu-solid medium supplemented with different concentrations of specific or non specific drugs or an equivalent amount of solvent (DMSO). […] Result was confirmed at least 3 times.
Yeast two-hybrid experiments were carried in the L40 strain (ATCC, Molsheim, France) transformed with a lexA/truncated HCV polymerase lacking the C-terminal 21 amino-acids fusion protein as a bait and the VVS001 peptide library as a prey. […] Conformation sensitive peptides or “3D-sensors” were then identified by addition to the selected individual yeast colonies of cVVS-023477 or cVVS-023476, two anti-NS5B drugs known to induce conformational changes in the target polymerase (FIG. 1b).

[11] = target: T6, NS5BΔ21 M414T mutant (Hepatitis C virus genotype 1b, UniProt P26662, M2833T); experiment: 3D-Screen-NS5B mutant profiling, Hela cells, M414T; format: cell-based, HCV genotype 1b; conditions: increasing concentrations, 24 hours
T6 construct: expressed in transfected cells; host or cells: Hela cells, plasmid pVVS516
Method: as §3, §1, §2, §4

[12] = listed as benzothiadiazidic compound

Row | Compound | inhibition at 1 µM ([1]; HeLa, 1 uM final concentration, 24 hours, 3D-sensor N21C272, versus DMSO) | inhibition at 10 µM ([1]; HeLa, 10 uM final concentration, 24 hours, 3D-sensor N21C272, versus DMSO) | inhibition of the luciferase signal (in words) [1] | IC50 [1] | sensitivity of NS5B from two different genotypes to the drug [2] | reporter inhibition (in words) [3] | IC50 [4] | reporter inhibition (in words) [5] | luciferase inhibition ([1]; 1 uM final concentration, 24 hours, 3D-sensor N21C272, versus DMSO) | luciferase inhibition ([1]; 10 uM final concentration, 24 hours, 3D-sensor N21C272, versus DMSO) | toxicity (in words) [6] | reporter inhibition (in words) [7] | sensitivity of the control clone (ER + 3D sensor No 30.2 interaction) to ligand [8] | reporter inhibition (in words) [9] | reporter inhibition (in words) [9, 12] | growth on selective medium and LacZ staining of the NS5BΔ21+N21C272 yeast clone [10] | reporter inhibition (in words) [11] | reporter inhibition (in words) [11, 12]
1 | CCN(CC)C1CCN(C(=O)Cn2c(-c3ccc(Cl)cc3)c(C3CCCCC3)c3ccc(C(=O)O)cc32)CC1 [cVVS-023476, 1-{[6-Carboxy-2-(4-chlorophenyl)-3-cyclohexyl-1H-indol-1-yl-]acetyl}-N,N-diethylpiperidin-4-aminium Chloride] | 67% | 82.6% | strong inhibition | 0.3 µM and 0.2 to 2 µM | slightly different sensitivity | only on the NS5B platform | 0.2 to 2 µM | only on the NS5B platform |  |  |  |  |  |  |  |  |  | 
2 | N-1-cyclobutyl-4-hydroxyquinolon-3-yl-benzothiadiazin [cVVS-023477] |  |  | strongly reduced | 3.2 µM |  |  |  |  | 51% | 90% and 83.2%+/−7.5 | not toxic | didn't show any noticeable reporter inhibition | not affected | the 50% signal inhibition was not reached | didn't show any noticeable reporter inhibition | didn't show any growth | the 50% signal inhibition was not reached | didn't show any noticeable reporter inhibition
